Experimental data: patent US20250320193A1, “OXOISOINDOLINYL SUBSTITUTED PIPERIDINEDIONE DERIVATIVE AND USE THEREOF” (GLUETACS THERAPEUTICS (SHANGHAI) CO., LTD., priority 2022, published 2025)

molecular target: human Cereblon WT GST-tagged protein (Homo sapiens (Human), UniProt Q96SW2); experiment: CRBN-binding affinity, HTRF (CEREBLON BINDING kit, CISBIO); conditions: HTRF inhibitory activity
Method: I. Determination of CRBN-binding affinity of compounds of the present disclosure:
The CEREBLON BINDING kits (specification: 10,000 tests; product number: Catalog #64BDCRBNPEH; CISBIO company) was used to determine the CRBN binding ability of the compounds to be tested through a HTRF method (homogeneous time-resolved fluorescence). The specific methods are as follows: • 1. […] Then, 2.5 μL of human Cereblon WT GST-tagged protein solution was added to each well. Finally, 5 μL of the thoroughly mixed Thalidomide-Red reagent and GST Eu antibody working solution were added to each of the aforementioned wells. […] The blank control wells were sequentially added with 2.5 μL of diluent #9 (1X) solution, 2.5 μL of PROTAC binding buffer, and 5 μL of thoroughly mixed Thalidomide-Red reagent and GST Eu antibody working solution. • 4.
The corresponding CRBN binding inhibition rate was calculated using the following method: […]
OD 620 nmcompound is the absorbance value of each well of the compounds to be tested of the present disclosure at an emission wavelength of 620 nm. […] OD 620 nmcontrol is the absorbance value of the blank control well at an emission wavelength of 620 nm. […] OD 620 nmStd0 is the absorbance value of the solvent control well at an emission wavelength of 620 nm.

Chain of human Cereblon WT GST-tagged protein (Q96SW2 whole entry): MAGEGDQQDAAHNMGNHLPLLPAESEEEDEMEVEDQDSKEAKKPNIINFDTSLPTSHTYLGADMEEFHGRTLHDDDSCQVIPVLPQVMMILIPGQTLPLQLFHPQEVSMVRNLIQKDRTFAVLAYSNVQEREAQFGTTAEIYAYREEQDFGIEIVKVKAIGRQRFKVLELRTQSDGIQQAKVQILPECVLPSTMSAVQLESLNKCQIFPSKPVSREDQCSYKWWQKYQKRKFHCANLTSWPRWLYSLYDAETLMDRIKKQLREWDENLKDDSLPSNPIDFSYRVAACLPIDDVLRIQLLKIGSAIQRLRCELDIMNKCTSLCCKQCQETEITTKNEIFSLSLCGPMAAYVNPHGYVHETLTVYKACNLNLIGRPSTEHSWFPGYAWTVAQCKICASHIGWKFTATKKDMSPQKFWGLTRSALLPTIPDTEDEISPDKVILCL

SMILES | IC50
O=C1CCC(N2Cc3cc(C(=O)N4C5CC4CN(C(c4ccccc4)c4ccccc4)C5)cc(F)c3C2=O)C(=O)N1 (centres unmarked) [GT-05916, 3-(5-(3-benzhydryl-3,6-diazabicyclo[3.1.1]heptane-6-carbonyl)-7-fluoro-1-oxoisoindolin-2-yl)piperidine-2,6-dione] | < 0.5 µM
O=C1CCC(N2C(=O)c3ccc(C(=O)N4C5CC4CN(C(c4ccccc4)c4ccccc4)C5)cc3C2=O)C(=O)N1 (centres unmarked) [GT-05918, 5-(3-benzhydryl-3,6-diazabicyclo[3.1.1]heptane-6-carbonyl)-2-(2,6-dioxopiperidin-3-yl) isoindoline-1,3-dione] | 1 to 1.9 µM
O=C1CCC(N2Cc3cc(CN4CCC5(CCN(C(c6ccccc6)c6ccccc6)CC5)C4)ccc3C2=O)C(=O)N1 (centres unmarked) [GT-05969, 3-(5-((8-benzhydryl-2,8-diazaspiro[4.5]decan-2-yl)methyl)-1-oxoisoindolin-2-yl)piperidine-2,6-dione] | 1 to 1.9 µM
O=C1CCC(N2Cc3cc(CN4CCC5(CCN(C(c6ccccc6)c6ccccc6)CC5)C4)cc(F)c3C2=O)C(=O)N1 (centres unmarked) [GT-05972, 3-(5-((8-benzhydryl-2,8-diazaspiro[4.5]decan-2-yl)methyl)-7-fluoro-1-oxoisoindolin-2-yl)piperidine-2,6-dione] | 1 to 1.9 µM
O=C1CCC(N2Cc3cc(C(=O)N4C[C@@H]5C[C@H]4CN5C(c4ccccc4)c4ccccc4)cc(F)c3C2=O)C(=O)N1 (stereo partly drawn) [GT-05978, 3-(5-((1S,4S)-5-benzhydryl-2,5-diazabicyclo[2.2.1]heptane-2-carbonyl)-7-fluoro-1-oxoisoindolin-2-yl)piperidine-2,6-dione] | 1 to 1.9 µM
O=C1CCC(N2Cc3cc(C(=O)N4CC5CCC(C4)N5C(c4ccccc4)c4ccccc4)cc(F)c3C2=O)C(=O)N1 (centres unmarked) [GT-05981, 3-(5-(8-benzhydryl-3,8-diazabicyclo[3.2.1]octane-3-carbonyl)-7-fluoro-1-oxoisoindolin-2-yl)piperidine-2,6-dione] | 0.5 to 1 µM
O=C1CCC(N2Cc3cc(C(=O)N4C5CCC4CN(C(c4ccccc4)c4ccccc4)C5)ccc3C2=O)C(=O)N1 (centres unmarked) [GT-05983, 3-(5-(3-benzhydryl-3,8-diazabicyclo[3.2.1]octane-8-carbonyl)-1-oxoisoindolin-2-yl)piperidine-2,6-dione] | 0.5 to 1 µM
O=C1CCC(N2Cc3cc(CN4CCC5(CC4)CCN(C(c4ccccc4)c4ccccc4)CC5)ccc3C2=O)C(=O)N1 (centres unmarked) [GT-06002, 3-(5-((9-benzhydryl-3,9-diazaspiro[5.5]undecan-3-yl)methyl)-1-oxoisoindolin-2-yl)piperidine-2,6-dione] | 0.5 to 1 µM
O=C1CCC(N2Cc3c(ccc(CN4CCC5(CC4)CCN(C(c4ccccc4)c4ccccc4)CC5)c3F)C2=O)C(=O)N1 (centres unmarked) [GT-06024, 3-(5-((9-benzhydryl-3,9-diazaspiro[5.5]undecan-3-yl)methyl)-4-fluoro-1-oxoisoindolin-2-yl)piperidine-2,6-dione] | 0.5 to 1 µM
O=C1CCC(N2Cc3cc(CN4CCC5(CC4)CCN(C(c4ccccc4)c4ccccc4)CC5)c(F)cc3C2=O)C(=O)N1 (centres unmarked) [GT-06025, 3-(5-((9-benzhydryl-3,9-diazaspiro[5.5]undecan-3-yl)methyl)-6-fluoro-1-oxoisoindolin-2-yl)piperidine-2,6-dione] | 0.5 to 1 µM
O=C1CCC(N2Cc3cc(CN4CCC5(CC4)CCN(C(c4ccccc4)c4ccccc4)CC5)cc(F)c3C2=O)C(=O)N1 (centres unmarked) [GT-06026, 3-(5-((9-benzhydryl-3,9-diazaspiro[5.5]undecan-3-yl)methyl)-7-fluoro-1-oxoisoindolin-2-yl)piperidine-2,6-dione] | 0.5 to 1 µM

Next, values leading:

IC50 | SMILES
< 0.5 µM | O=C1CCC(N2Cc3cc(CN4CC5(CCN(C(c6ccccc6)c6ccccc6)CC5)C4)ccc3C2=O)C(=O)N1 (centres unmarked) [GT-05901, 3-(5-((7-benzhydryl-2,7-diazaspiro[3.5]nonan-2-yl)methyl)-1-oxoisoindolin-2-yl)piperidine-2,6-dione]
0.5 to 1 µM | O=C1CCC(N2Cc3c(ccc(CN4CC5(CCN(C(c6ccccc6)c6ccccc6)CC5)C4)c3F)C2=O)C(=O)N1 (centres unmarked) [GT-05902, 3-(5-((7-benzhydryl-2,7-diazaspiro[3.5]nonan-2-yl)methyl)-4-fluoro-1-oxoisoindolin-2-yl)piperidine-2,6-dione]
0.5 to 1 µM | O=C1CCC(N2Cc3cc(CN4CC5(CCN(C(c6ccccc6)c6ccccc6)CC5)C4)c(F)cc3C2=O)C(=O)N1 (centres unmarked) [GT-05903, 3-(5-((7-benzhydryl-2,7-diazaspiro[3.5]nonan-2-yl)methyl)-6-fluoro-1-oxoisoindolin-2-yl)piperidine-2,6-dione]
0.5 to 1 µM | O=C1CCC(N2Cc3cc(CN4CC5(CCN(C(c6ccccc6)c6ccccc6)CC5)C4)cc(F)c3C2=O)C(=O)N1 (centres unmarked) [GT-05904, 3-(5-((7-benzhydryl-2,7-diazaspiro[3.5]nonan-2-yl)methyl)-7-fluoro-1-oxoisoindolin-2-yl)piperidine-2,6-dione]
0.5 to 1 µM | CC1CN(C(c2ccccc2)c2ccccc2)CC(C)N1C(=O)c1cc(F)c2c(c1)CN(C1CCC(=O)NC1=O)C2=O (centres unmarked) [GT-05921, 3-(5-(4-benzhydryl-2,6-dimethylpiperazine-1-carbonyl)-7-fluoro-1-oxoisoindolin-2-yl)piperidine-2,6-dione]
0.5 to 1 µM | O=C1CCC(N2C(=O)c3cc(F)c(N4CC5CCC4CN5C(c4ccccc4)c4ccccc4)cc3C2=O)C(=O)N1 (centres unmarked) [GT-05936, 5-(5-benzhydryl-2,5-diazabicyclo[2.2.2]octan-2-yl)-2-(2,6-dioxopiperidin-3-yl)-6-fluoroisoindoline-1,3-dione]
0.5 to 1 µM | O=C1CCC(N2Cc3cc(CN4C[C@H]5C[C@@H]4CN5C(c4ccccc4)c4ccccc4)c(F)cc3C2=O)C(=O)N1 (stereo partly drawn) [GT-05958, 3-(5-(((1R,4R)-5-benzhydryl-2,5-diazabicyclo[2.2.1]heptan-2-yl)methyl)-6-fluoro-1-oxoisoindolin-2-yl)piperidine-2,6-dione]
0.5 to 1 µM | O=C1CCC(N2Cc3cc(CN4CC5CCC4CN5C(c4ccccc4)c4ccccc4)cc(F)c3C2=O)C(=O)N1 (centres unmarked) [GT-05964, 3-(5-((5-benzhydryl-2,5-diazabicyclo[2.2.2]octan-2-yl)methyl)-7-fluoro-1-oxoisoindolin-2-yl)piperidine-2,6-dione]
0.5 to 1 µM | O=C1CCC(N2Cc3cc(C(=O)N4C[C@@H]5C[C@H]4CN5C(c4ccccc4)c4ccccc4)ccc3C2=O)C(=O)N1 (stereo partly drawn) [GT-05977, 3-(5-((1S,4S)-5-benzhydryl-2,5-diazabicyclo[2.2.1]heptane-2-carbonyl)-1-oxoisoindolin-2-yl)piperidine-2,6-dione]
0.5 to 1 µM | O=C1CCC(N2Cc3c(C(=O)N4CCN(C(c5ccc(Cl)cc5)c5ccc(Cl)cc5)CC4)cccc3C2=O)C(=O)N1 (centres unmarked) [GT-05985, 3-(4-(4-(bis(4-chlorophenyl)methyl)piperazine-1-carbonyl)-1-oxoisoindolin-2-yl)piperidine-2,6-dione]
< 0.5 µM | O=C1CCC(N2Cc3cc(C(=O)N4C[C@H]5C[C@@H]4CN5C(c4ccccc4)c4ccccc4)ccc3C2=O)C(=O)N1 (stereo partly drawn) [GT-05990, 3-(5-((1R,4R)-5-benzhydryl-2,5-diazabicyclo[2.2.1]heptane-2-carbonyl)-1-oxoisoindolin-2-yl)piperidine-2,6-dione]
< 0.5 µM | O=C1CCC(N2Cc3cc(C(=O)N4C[C@H]5C[C@@H]4CN5C(c4ccccc4)c4ccccc4)cc(F)c3C2=O)C(=O)N1 (stereo partly drawn) [GT-05991, 3-(5-((1R,4R)-5-benzhydryl-2,5-diazabicyclo[2.2.1]heptane-2-carbonyl)-7-fluoro-1-oxoisoindolin-2-yl)piperidine-2,6-dione]
